Measurements taken from article PMC7918738, “Microtubule Destabilizing Sulfonamides as an Alternative to Taxane-Based Chemotherapy” (International Journal of Molecular Sciences, 2021).
In brackets after ≈: the same amount, converted by molar mass. Read-outs that look alike come from different tables or passages of the source.

Legend:
[1] = Aqueous solubility, saturation shake-flask method, UV absorbance; settings: phosphate buffer, pH 7, aqueous buffer, thermodynamic from solid
Description: UV absorbance at three maximum absorbance wavelengths of selected compounds was measured after 48 h shaking and subsequent microfiltration.
The aqueous solubility of the sulfonamides was determined using an approach based on the saturation shake-flask method. Tested compounds (1–2 mg) were stirred in pH 7.0 phosphate buffer (300 µL) for 48 h at room temperature. The resulting suspension was filtered over a 45 µm filter to discard insoluble residues, and the concentration in the supernatant was measured by UV absorbance. To determine the concentration, a scan between 270 and 400 nm was performed in a Helios-α UV-320 Spectrophotometer (Thermo-Spectronic, Thermo Fischer Scientific, Waltham, MA, USA) for each tested compound. Then, three maximum wavelengths of absorbance per compound were selected from the previous scan and calibration curves were performed at these three wavelengths. Solubility results are given as the average of the three measurements.

[2] = tested on: HT-29 (colon adenocarcinoma); assay: Antiproliferative activity against CA-4-resistant HT-29 with or without verapamil (sensitivity to MDR pumps, XTT); assay type: cell-based, human; settings: Homo sapiens, read-out: Antiproliferative Activity IC50 HT-29
Description: Detecting changes in drug potency when inhibiting MDR-mediated efflux reflect that these transporters reduce the intracellular drug concentration. HT-29 has been reported to express moderate levels of MDR1, accounting for a resistant phenotype. A comparison of the antiproliferative IC50 values of each MDS in the presence or absence of verapamil provides an estimate of the susceptibility of each compound to efflux pumps.
MCF7 (human breast carcinoma), SKOV-3 (human ovarian carcinoma), OVCAR-3 (human ovarian carcinoma), OVCAR-8 (human ovarian carcinoma), and HeLa (human cervical carcinoma) cell lines were cultured in Dulbecco’s Modified Eagle’s Medium (DMEM) (Gibco, Thermo Fischer Scientific) containing 10% (v/v) heat-inactivated fetal bovine serum (HIFBS) (Lonza-Cambrex, Karlskoga, Sweden), 2 mM L-glutamine (Lonza-Cambrex, Karlskoga, Sweden), 100 μg/mL streptomycin, and 100 IU/mL penicillin (Lonza-Cambrex) at 37 °C in humidified 95% air and 5% CO2. HT-29 (human colon carcinoma), IGROV-1 (human ovarian carcinoma), and A2780 (human ovarian carcinoma) cell lines were cultured in RPMI 1640 medium (Gibco, Thermo Fischer Scientific) supplemented with 10% HIFBS, 100 μg/mL streptomycin, and 100 IU/mL penicillin at 37 °C in humidified 95% air and 5% CO2 atmosphere. The presence of mycoplasma was routinely checked with MycoAlert kit (Lonza-Cambrex) and only mycoplasma-free cells were used in the experiments. Ovarian tumor cell lines were originally acquired from Dr Atanasio Pandiella from Centro de Investigación del Cáncer (CIC), Salamanca, Spain. HeLa, HT-29 and MCF7 tumor cell lines were provided by Dr Faustino Mollinedo from Centro de Investigaciones Biológicas Margarita Salas, Madrid, Spain.
MCF7, HeLa, and HT-29 cell proliferation, when treated with the corresponding compounds, were determined using the XTT (sodium 3’-[1(phenylaminocarbonyl)-3,4-tetrazolium]-bis(4-methoxy-6-nitro)-benzenesulfonic acid hydrate) cell proliferation kit (Roche Molecular Biochemicals, Mannheim, Germany). A freshly prepared mixture of XTT labeling reagent with 0.02% (v/v) PMS (N-methyl-dibenzopyrazine methyl sulfate) electron coupling reagent was added to cells (50 µL/well in 96-well plates, total volume of 160 µL/well). Cells were incubated under standard culture conditions for 4 h (MCF7 and HeLa) or 6 h (HT-29). The absorbance of the formazan product generated was measured at 450 nm using a multi-well plate reader. SKOV-3, OVCAR-3, OVCAR-8, IGROV-1, A-2780 cell proliferation, when treated with the corresponding compound, were determined using MTT (3-(4,5-dimethylthiazol-2-yl)-2,5-diphenyl-2H-tetrazolium bromide) (Sigma-Aldrich, St. Louis, MO, USA). MTT in Phosphate Buffer Saline (PBS) (5 mg/ml) was added to cells (110 µL/well in 24-well plates, total volume of 1110 µL/well). After 1 hour of incubation, the medium was aspirated, and formazan violet crystals were dissolved in dimethyl sulfoxide (DMSO) (500 µL/well). Absorbance was measured at 570 nm in a plate reader (Ultra Evolution, Tecan, Männedorf, Suiza). To determine cell viability, cells in exponential growth phase were seeded (100 µL/well in 96-well plates and 1000 µL/well in 24-well plates) with appropriate cell line concentration (1.5·10^4 cells/mL for MCF7 and HeLa, 3·10^4 cells/mL for HT-29, and 1·10^4 cells/mL for SKOV-3, OVCAR-3, OVCAR-8, IGROV-1, and A-2780) in complete RPMI 1640 or DMEM medium at 37°C and 5% CO2 atmosphere. After 24 h incubation, to allow cells to attach to the plates, all compounds were added at 1 µM concentration and the effect on the proliferation was evaluated 72 h post-treatment. […] Non-linear curves fitting the experimental data were carried out for each compound. Compounds were dissolved in DMSO and the final solvent concentrations never exceeded 0.5% (v/v). The control wells included […] with 0.5% (v/v) DMSO and the positive control. 10 µM verapamil was included as a control for the HT-29 cell line.

[3] = HT-29, 72 h, XTT, without verapamil

| Structure (SMILES) | solubility at 48 h [1] | IC50 [2, 3] | melting point | IC50 ([2]; HT-29, 72 h) |
| --- | --- | --- | --- | --- |
| COc1ccc(S(=O)(=O)Nc2cc(OC)c(OC)c(OC)c2NC=O)cc1 [Compound 17] |  | > 1000 nM |  |  |
| COc1ccc(S(=O)(=O)Nc2cc(OC)c(OC)c(OC)c2NC(=O)CNC(=O)OC(C)(C)C)cc1 [Compound 21] | 357 µg/mL (≈ 679 µM) | > 1000 nM |  |  |
| CNc1cc(S(=O)(=O)N(C)c2cc(OC)c(OC)c(OC)c2)ccc1OC [Compound 48a] |  | > 1000 nM |  |  |
| COc1ccc(S(=O)(=O)N(CCBr)c2cc(OC)c(OC)c(OC)c2)cc1 [Compound 4] |  |  |  | 503 nM |
| COc1ccc(S(=O)(=O)Nc2cc(OC)c(OC)c(OC)c2NCN(c2cc(OC)c(OC)c(OC)c2N)S(=O)(=O)c2ccc(OC)cc2)cc1 [Compound 14] |  | > 1000 nM |  |  |
| COc1cc(N(CC(=O)O)S(=O)(=O)c2ccc(N(C)C)cc2)cc(OC)c1OC [Compound 34] |  | > 1000 nM | 168 to 170 °C |  |
| COc1ccc(S(=O)(=O)N(C)c2cc(OC)c(OC)c(OC)c2N)cc1 [Compound 13] |  | > 1000 nM |  |  |
| COc1ccc(S(=O)(=O)N(CC(=O)O)c2cc(OC)c(OC)c(OC)c2)cc1 [Compound 8] |  | > 1000 nM | 151 to 158 °C |  |
| COc1ccc(S(=O)(=O)N(CC#N)c2cc(OC)c(OC)c(OC)c2)cc1N [Compound 44] | 46 µg/mL (≈ 113 µM) | 61 nM | 139 to 145 °C |  |
| COc1ccc(S(=O)(=O)N(c2cc(OC)c(OC)c(OC)c2)S(=O)(=O)c2ccc(OC)cc2)cc1 [Compound 1b] | 108 µg/mL (≈ 206 µM) | > 1000 nM |  |  |
| CCOC(=O)CNc1cc(S(=O)(=O)N(C)c2cc(OC)c(OC)c(OC)c2)ccc1OC [Compound 46] |  | 113 nM |  |  |
| CCOC(=O)CN(c1cc(OC)c(OC)c(OC)c1)S(=O)(=O)c1ccc(N(C)C)cc1 [Compound 33] |  | 863 nM |  |  |
| COc1ccc(S(=O)(=O)N(C)c2cc(OC)c(OC)c(OC)c2)cc1N(C)C [Compound 48b] |  |  |  | > 1000 nM |
| COc1ccc(S(=O)(=O)N(C)c2cc(OC)c(OC)c(OC)c2N(C)C)cc1 [Compound 19] |  | > 1000 nM |  |  |
| COc1ccc(S(=O)(=O)n2cnc3c(OC)c(OC)c(OC)cc32)cc1 [Compound 24] |  | > 1000 nM |  |  |
| CCOC(=O)CNc1cc(S(=O)(=O)N(CC(=O)OCC)c2cc(OC)c(OC)c(OC)c2)ccc1OC [Compound 47] |  | > 1000 nM |  |  |
| COc1ccc(S(=O)(=O)N(Cc2ccccc2)c2cc(OC)c(OC)c(OC)c2)cc1 [Compound 9] |  | > 1000 nM |  |  |
| COc1cc(N(C(=O)OCc2ccccc2)S(=O)(=O)c2ccc(N(C)C)cc2)cc(OC)c1OC [Compound 35b] |  | 690 nM |  |  |
| COc1ccc(/C=C\c2cc(OC)c(OC)c(OC)c2)cc1O [Combretastatin A-4, reference compound] |  | 305 nM |  |  |
| COc1ccc(S(=O)(=O)n2nnc3c(OC)c(OC)c(OC)cc32)cc1 [Compound 23] | 41 µg/mL (≈ 108 µM) | > 1000 nM |  |  |
| COc1ccc(S(=O)(=O)Nc2cc(OC)c(OC)c(OC)c2NC(C)=O)cc1 [Compound 15] | 230 µg/mL (≈ 560 µM) | > 1000 nM |  |  |
| COc1cc(N(Cc2ccccc2)S(=O)(=O)c2ccc(N(C)C)cc2)cc(OC)c1OC [Compound 35a] |  | 165 nM |  |  |
| COc1ccc(S(=O)(=O)N(C(=O)OCc2ccccc2)c2cc(OC)c(OC)c(OC)c2)cc1 [Compound 10] |  | > 1000 nM |  |  |
| COc1ccc(S(=O)(=O)N(C)c2cc(OC)c(OC)c(OC)c2NC(C)=O)cc1 [Compound 16] |  | > 1000 nM | 205 to 210 °C |  |
| CCN(c1cc(OC)c(OC)c(OC)c1)S(=O)(=O)c1ccc(OC)c(N)c1 [Compound 43] | 58 µg/mL (≈ 146 µM) | 63 nM |  |  |
| CCOC(=O)CN(c1cc(OC)c(OC)c(OC)c1)S(=O)(=O)c1ccc(OC)cc1 [Compound 7] |  | 237 nM | 123 to 127 °C |  |

The next lines start with results.

| solubility at 48 h [1] | IC50 [2, 3] | melting point | Structure (SMILES) | IC50 ([2]; HT-29, 72 h) |
| --- | --- | --- | --- | --- |
| 27 µg/mL (≈ 73.7 µM) | > 1000 nM |  | COc1cc(NS(=O)(=O)c2ccc(NC=O)cc2)cc(OC)c1OC [Compound 36] |  |
| 15 µg/mL (≈ 40.9 µM) | 887 nM |  | COc1cc(NS(=O)(=O)c2ccc(N(C)C)cc2)cc(OC)c1OC [Compound 28] |  |
| 25 µg/mL (≈ 70.9 µM) | > 1000 nM |  | COc1cc(N(C)S(=O)(=O)c2ccc(N)cc2)cc(OC)c1OC [Compound 27] |  |
| 7 µg/mL (≈ 18.4 µM) | 103 nM | 134 to 140 °C | COc1cc(N(C)S(=O)(=O)c2ccc(N(C)C)cc2)cc(OC)c1OC [Compound 29a] |  |
| 27 µg/mL (≈ 73.5 µM) | 143 nM | 123 to 124 °C | COc1ccc(S(=O)(=O)N(C)c2cc(OC)c(OC)c(OC)c2)cc1 [Compound 2a] |  |
| 33 µg/mL (≈ 84.1 µM) | 230 nM |  | COc1ccc(S(=O)(=O)N(CC#N)c2cc(OC)c(OC)c(OC)c2)cc1 [Compound 6] |  |
|  | > 1000 nM | 138 to 140 °C | COc1cc(NS(=O)(=O)c2ccc([N+](=O)[O-])cc2)cc(OC)c1OC [Compound 25] |  |
| 28 µg/mL (≈ 82.7 µM) | > 1000 nM | 177 to 179 °C | COc1cc(NS(=O)(=O)c2ccc(N)cc2)cc(OC)c1OC [Compound 26] |  |
| 38 µg/mL (≈ 96.1 µM) | 747 nM | 190 to 195 °C | COc1ccc(S(=O)(=O)N(C(C)=O)c2cc(OC)c(OC)c(OC)c2)cc1 [Compound 5] |  |
| 18 µg/mL (≈ 44.1 µM) | 140 nM |  | COc1cc(N(C(C)=O)S(=O)(=O)c2ccc(N(C)C)cc2)cc(OC)c1OC [Compound 31] |  |
| 88 µg/mL (≈ 221 µM) | > 1000 nM |  | COc1ccc(S(=O)(=O)Nc2cc(OC)c(OC)c(OC)c2[N+](=O)[O-])cc1 [Compound 11] |  |
| 43 µg/mL (≈ 122 µM) | 807 nM | 200 to 206 °C | CNc1ccc(S(=O)(=O)Nc2cc(OC)c(OC)c(OC)c2)cc1 [Compound 37] |  |
|  | > 1000 nM |  | COc1ccc(S(=O)(=O)Nc2cc(OC)c(OC)c(OC)c2)cc1[N+](=O)[O-] [Compound 40] |  |
| 6 µg/mL (≈ 15.2 µM) | 460 nM |  | CCN(c1cc(OC)c(OC)c(OC)c1)S(=O)(=O)c1ccc(N(C)C)cc1 [Compound 30] |  |
| 30 µg/mL (≈ 78.6 µM) | 913 nM | 140 to 143 °C | CCN(c1cc(OC)c(OC)c(OC)c1)S(=O)(=O)c1ccc(OC)cc1 [Compound 3] |  |
| 83 µg/mL (≈ 235 µM) | 897 nM | 115 to 116 °C | COc1ccc(S(=O)(=O)Nc2cc(OC)c(OC)c(OC)c2)cc1 [Compound 1a] |  |
| 89 µg/mL (≈ 242 µM) | 277 nM |  | COc1ccc(S(=O)(=O)Nc2cc(OC)c(OC)c(OC)c2)cc1N [Compound 41] |  |
| 158 µg/mL (≈ 429 µM) | > 1000 nM |  | COc1ccc(S(=O)(=O)Nc2cc(OC)c(OC)c(OC)c2N)cc1 [Compound 12] |  |
| 8 µg/mL (≈ 19.7 µM) | 123 nM |  | COc1cc(N(CC#N)S(=O)(=O)c2ccc(N(C)C)cc2)cc(OC)c1OC [Compound 32] |  |
| 87 µg/mL (≈ 201 µM) | > 1000 nM |  | COc1ccc(S(=O)(=O)Nc2cc(OC)c(OC)c(OC)c2Br)cc1 [Compound 20] |  |
|  | > 1000 nM |  | COc1ccc(S(=O)(=O)Nc2cc(OC)c(OC)c(OC)c2N(C)C)cc1 [Compound 18] |  |
